Results as given in paper PMC10227015, “From a drug repositioning to a structure-based drug design approach to tackle acute lymphoblastic leukemia” (Nature Communications, 2023).
Values joined by “and” are separate entries in the source; they are usually repeats but may differ in a detail not shown here. Equal values may be shown once. Values belong to the compound of their own block, whether it stands above or below them.

Key:
[1] = molecular target: dCK-C3S-S74E; test: Isothermal titration calorimetry (ITC); assay type: binding, human; details: 25 °C
Text: BL21 pRIL Escherichia coli cells were transformed with dCK-plasmids (dCK-C4S-S74E (for crystallization assays) and dCK-C3S-S74E (for TSA, enzymatic and ITC assays)). Protein dCK-C4S-S74E used for crystallization assays contained four mutations in order to generate better quality crystals (four solvent-exposed cysteine residues were mutated to serine; C9S, C45S, C59S and C146S). Protein dCK-C3S-S74E used for other assays contained only three mutated cysteines. The S74E mutation mimics the phosphorylated state of this serine, which favors the open conformation of the enzyme, making it competent for nucleoside binding[45] to evaluate the binding affinity with compounds. E. coli cells were grown in LB media containing 100 μg/ml ampicillin and 34 μg/ml chloramphenicol at 18 °C for 20 h after induction with 1 mM IPTG.
For binding assays (TSA, ITC and crystallography) cells were re-suspended in 50 mM TRIS, pH 8, 500 mM NaCl, 30 mM imidazole and 10% glycerol buffer and one EDTA free anti-protease tablet was added (Roche). After sonication and centrifugation (30,000 × g), the supernatant was loaded on a 5 ml HisTrap FF column (GE healthcare) pre-equilibrated with resuspension buffer. Protein was then eluted by resuspension buffer containing 500 mM imidazole. Protein eluted fractions were mixed and concentrated. […]

[2] = test system: CCRF-CEM cells; test: γH2A.X measurements (DNA damage); assay type: cell-based, human; details: 24 h, dT 200 µM, others 1 µM, presence of dC
Protocol: CCRF-CEM cells were seeded at 100,000 cells/ml, and treated with DMSO (0.01%) as vehicle control or dT (200 μΜ), and/or dC, OR0642, DI-87 and DI-39 (1 μΜ). For cell cycle analysis, cells were harvested after 24 h, fixed in 4% paraformaldehyde, permeabilized with 0.15% Triton X100, and DNA content was determined using 1 μg/ml DAPI. For apoptosis assay, cells were harvested after 72 h and cell death was assayed using Annexin V-APC and 7AAD following manufacturer’s instructions (Biolegend, 640930). For γH2A.X measurements, cells were harvested after 24 h, fixed in 4% paraformaldehyde and permeabilized with 0.15% Triton X100. Then, cells were stained with the phospho-H2AX (pS139 H2AX, Biolegend, 613402, 1:1000) specific primary antibody, Alexa-Fluor 488 secondary antibody (ThermoFisher, A21202, 1:1000) and DAPI. All acquisitions were performed on a BD Fortessa cytometer, and analysis of flow cytometry data was performed using FlowJo™ Software 10.7.1 (BD Life Sciences). Each experiment was performed three times. Figures exemplifying the gating strategy are provided in the Supplementary Information (Supplementary Figs. 29–31).
Cells were seeded, treated and stained as described for flow cytometry analysis, and then spread on a microscope slide using cytospin. Slides were mounted with […] mounting medium with DAPI (Vector Laboratories). […]

[3] = test system: Swiss male mice; test: Acute in vivo toxicity, unique IP injection; details: mice, from 20 mg/kg/day
[4] = test system: UPNT525 patient-derived xenograft; test: T-ALL PDX mouse model UPNT525; assay type: in vivo; design: hCD45+ populations determined by flux cytometry at day 19: unit not given here
Protocol: Temperature was maintained between 20 and 24 °C and the hygrometry between 40 and 60%. Sex was not considered in the study design and studies were realized in male mice, as toxicity and pharmacokinetics were performed previously in male mice. […] OR0642 was administered in its hydrochloride salt form (OR0642-HCl). Drug administration protocol is detailed in Fig. 4a. […] Patient-derived xenograft was generated from a primary-T-ALL (UPNT525) sample[28],[29]. Briefly, we injected 1,000,000 cells in 100 μl of PBS by intravenous (IV) retro orbital injection in NSG mice. […] Drug administration protocol is detailed in Fig. 5d. Disease propagation was monitored at day 19 by hCD45 detection in peripheral blood. […] Figures exemplifying the gating strategy are provided in the Supplementary Information (Supplementary Figs. 32 and 33).

[5] = PDX mouse model UPNT525, dT 1,5 g/Kg, individual mice

Chain of dCK-C3S-S74E (P27707 whole entry S74E, form open): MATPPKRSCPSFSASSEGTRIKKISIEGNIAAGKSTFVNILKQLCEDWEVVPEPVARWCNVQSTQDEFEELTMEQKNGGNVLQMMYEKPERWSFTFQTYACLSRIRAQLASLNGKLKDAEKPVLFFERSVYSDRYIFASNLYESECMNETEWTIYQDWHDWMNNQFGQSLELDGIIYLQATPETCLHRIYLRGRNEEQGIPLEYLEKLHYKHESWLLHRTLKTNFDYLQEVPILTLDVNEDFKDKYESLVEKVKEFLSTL

Kd [1]: 128 nM
SMILES: Cc1ccc(NC(=O)c2ccc(CN3CCN(C)CC3)cc2)cc1Nc1nc(-c2nccc(N)n2)cs1 [dCKi1]

SMILES: CCCN(c1nc(-c2nc(N)cc(N)n2)cs1)c1cc(-c2ccc(S(=O)(=O)N3CCN(C)CC3)cc2C(F)(F)F)ccc1C [OR0642]
DNA damage, γH2A.X [2]: neither dT nor OR0642 alone induced DNA damage or apoptosis

SMILES: CCCN(c1nc(-c2nc(N)cc(N)n2)cs1)c1cc(-c2ccc(CCN3CCN(C)CC3)nc2)ccc1C [OR0602]
in vivo tolerance [3]: unacceptable side effects

SMILES: Cc1cn([C@H]2C[C@H](O)[C@@H](CO)O2)c(=O)[nH]c1=O [dT, thymidine]
Survival days [4, 5]: 26 days and 38 days and 42 days | hCD45+ populations determined by flux cytometry at day 19 [4, 5]: 164 and 330 and 108 and 177 and 168 and 318 | median survival ([4]; dT 1.5 g/kg, OR0642 40 mg/kg IP BID 5 days a week): 38 days | effect on disease progression ([4]; day 19): significant decrease in disease progression | DNA damage, γH2A.X [2]: neither dT nor OR0642 alone induced DNA damage or apoptosis

Kd [1]: 37 nM
SMILES: Cc1ccc(NC(=O)c2ccc(CN3CCN(C)CC3)cc2)cc1Nc1nc(-c2nc(N)cc(N)n2)cs1 [dCKi2, N-(3-((4-(4,6-diaminopyrimidin-2-yl)thiazol-2-yl)amino)-4-methylphenyl)-4-((4-methylpiperazin-1-yl)methyl)benzamide]
